Data: patent publication US11985977B2, “Use of composition as a growth promotant for plants” (UENME Global Pty LTD, priority 2018, dated 2024)

Columns and labels:
[1] = system: avocado (Persea americana); assay: Avocado orchard soil spray trial (Example 1); type: in vivo
Procedure: In an avocado (Persea americana) orchard in Queensland, an area of the orchard was selected with poor tree health.
TMT supplied in a 15% aqueous solution was diluted in collected rainwater at 1 in 400, namely in a 0.0375% w/v aqueous solution, was applied with a fire-fighting pump and sprayed to the soil only beneath two trees. This spraying mimicked a tree sprinkler application and was applied as twenty litres per tree.

Rhodes grass = Rhodes grass pasture dieback trial (Example 2); type: in vivo; settings: 0.03% w/v applied 27 Jun. 2017; sample taken 8 Aug., kept in 10 ml rainwater, observed by 28 Aug. 2017; no change on untreated control
Procedure: On a property near Gin Gin, Queensland a pasture area of Rhodes grass was suffering from “pasture dieback”.
On 27 Jun. 2017 TMT supplied in a 15% aqueous solution diluted in rainwater at 1 in 500 (10 ml/5 L), namely in a 0.03% w/v aqueous solution was applied to a portion of that pasture area hereinafter referred to as the “treated grass”.
On 8 Aug. 2017 grass samples were taken from the treated grass (as a test sample) and from the surrounding untreated grass (as a control sample), and each of these grass samples were placed in separate open containers containing 10 ml of rainwater.

[2] = system: native bloodwood (Eucalyptus) trees; assay: Bloodwood trees, bark and soil drench (Example 3); type: in vivo; settings: 0.03% w/v, three applications drenching bark and surrounding soil; trees appeared to be dying
Procedure: On 10 Apr. 2017 TMT supplied in a 15% aqueous solution diluted in rainwater at 1 in 500 (10 ml/5 L), namely in 0.03% w/v aqueous solution was first applied by drenching the bark and surrounding soil for each of the three.
Second and third similar applications of a 0.03% w/v TMT aqueous solution were made to the three trees on 3 June and 27 June respectively.

[3] = Growth stimulation by TMT mixed with liquid humate solution and powdered zeolite; type: in vivo; settings: TMT mixed with a liquid humate solution containing fine powdered zeolite (<40 u)
Phytophthora = assay: Laboratory study on Phytophthora in avocado soil (Example 4); type: cell-based
Procedure: Laboratory study on Phytophthora (30 Sep. 2017 onwards to August 2018)
Crop avocado soil with Phytophthora.
Treatment TMT supplied in a 15% aqueous solution diluted at 1:500 (10 ml/5 L)

Phellinus = assay: Similar laboratory study on Phellinus from avocado and Eucalyptus; type: cell-based; settings: similar TMT aqueous solutions; pathogens found on avocado and Eucalyptus
Pithium = assay: Similar laboratory study on Pithium from avocado and Eucalyptus; type: cell-based; settings: similar TMT aqueous solutions; pathogens found on avocado and Eucalyptus
[4] = system: fungal pathogens Phellinus and Phytophthora; assay: Mango orchard foliar and stem spray, fungal pathogens (Example 5); type: in vivo; settings: 0.03% w/v, foliar and stem spray 2 litre/tree, once, twice or three times two weeks apart; three mango trees
Procedure: TMT supplied in a 15% aqueous solution diluted in rainwater at 1 in 500 (10 ml/5 L), namely in 0.03% w/v aqueous solution was used. These three trees were foliar and stem sprayed (2 litre/tree each time) with the solution, once, twice or three times some two weeks apart. The fungal pathogen was killed. The growth response was extraordinary, but in order of the number of sprays. Leaves in both number and size followed suit as did flower spikes and fruit set. Fruit harvested was 10% greater in mass for each additional spray.

mango (Mangifera indica) = assay: Mango orchard foliar and stem spray, growth and fruit (Example 5); type: in vivo
Procedure: TMT supplied in a 15% aqueous solution diluted in rainwater at 1 in 500 (10 ml/5 L), namely in 0.03% w/v aqueous solution was used. These three trees were foliar and stem sprayed (2 litre/tree each time) with the solution, once, twice or three times some two weeks apart.

[5] = system: mango trees (cv Kensington Pride); assay: Second mango trial, fruit and tree health (Example 6); type: in vivo, Mangifera indica
[6] = system: Phellinus (fungal pathogen); assay: Second mango trial, fungal pathogen (Example 6); type: in vivo; settings: spraying as in Example 5; Phellinus fruiting bodies under the bark at start
Fusarium oxysporum = assay: Banana plantation foliar spray trial (Example 7); type: in vivo; settings: 0.03% w/v foliar spray, seven affected banana plants (cv Lady Finger); no change in water-sprayed control
Procedure: On a banana (Musa) plantation in Queensland, banana plants (cv Lady Finger) were identified to be affected with Fusarium oxysporum (an ascomycete fungus). Vascular colourisation was seen where the fungus had colonised. A trial using foliar sprays was used. TMT supplied in a 15% aqueous solution diluted in rainwater at 1 in 500 (10 ml/5 L), namely in 0.03% w/v aqueous solution was used for the foliar spraying of seven affected banana plants.

[7] = system: mango (Mangifera indica) trees (cv Kensington Pride); assay: Mango early flowering and fruiting, foliar spray (Example 8); type: in vivo; settings: 0.03% w/v
Procedure: These mango trees are in rocky poor soil, that is not irrigated.
On 28 Jun. 2019, TMT supplied in a 15% aqueous solution diluted in rainwater at 1 in 500 (10 ml/5 L), namely in 0.03% w/v aqueous solution was applied by foliar spraying.

Macadamia tree = Macadamia tree foliar spray, early flowering; type: in vivo
Description: On the same property as in Example 8, a Macadamia tree was also foliar sprayed on 28 Jun.

[8] = system: Native pine trees (Auracaria spp.); assay: Native pine trees spray; type: in vivo; settings: sprayed 28 Jun. 2019
Description: Native pine trees (Auracaria spp.) of differing varieties, also on the same property as in Example 8, were also sprayed on the 28 Jun.

[9] = system: blue grass, couch, Rhodes and turf grasses; assay: Grass trials (die back); type: in vivo
Procedure: Trials were performed on grazing land, a football field, a house front lawn with controls and on golf course couch greens. In all trials on soil with spray application (50 L/50 m^2) relative to controls with water only or TMT+humate solution applied in zeolite or in biochar+/− TMT and humate, 1 kg/10 m^2 with 40 L of solution/T of absorbent.

[10] = system: Araucaria, Cassia and Bauhinia, Grevillea; assay: Tree trials, spraying; type: in vivo; settings: 0.03% w/v spray; after a few weeks of spraying
[11] = system: blue gum, spotted gum, blood wood, lemon scented gum, Moreton Bay ash and Corymbia costata; assay: Additional Eucalypt trials, bark spray; type: in vivo, Eucalypts; settings: bark sprayed; drought conditions, Phytophthora in the soil
Procedure: Additional trials were also carried out on Eucalypts other than that described in Example 3.
Under current drought conditions and the presence of Phytophthora in the soil, all of the additional trees we trialled looked close to death. The bark of all the following trees were sprayed viz. blue gum, spotted gum, blood wood, lemon scented gum, Moreton Bay ash and Corymbia costata.

[12] = system: hemp, macadamias, grapes, citrus (mandarins) and capsicum; assay: Various other crop trials, spraying; type: in vivo; settings: 0.03% w/v spray
Phellinus spp. = assay: Contact kill of soil borne fungal pathogens; type: cell-based; settings: TMT diluted with water
Description: (§1) TMT diluted with water kills the soil borne fungal pathogens, Phytothphora cinnamomi, Pithium spp., and Phellinus spp. on contact.

Phytothphora cinnamomi = assay: Contact kill of soil borne fungal pathogens; type: cell-based; settings: TMT diluted with water
Description: as §1

Pithium spp. = assay: Contact kill of soil borne fungal pathogens; type: cell-based; settings: TMT diluted with water
Description: as §1

[13] = system: other soil microbes including other pathogens, fungi, bacteria as well as other soil or water borne biota; assay: Toxicity to other soil microbes and biota; settings: TMT diluted with water
[14] = system: insects, annelids, crustaceans, molluscs, arachnids, birds and animals; assay: Observed effect on other small organisms, birds and animals; type: in vivo; settings: TMT diluted with water as in the embodiments and examples
Description: The LD-50 for the rat is 2× the body mass of the rat, so it would drown before dying by ingestion.

rat = settings: ingestion; cited from earlier work
[15] = aqueous solution and foliar and stem spraying as in Example 5
[16] = thirty-six days, without watering or fertilizer since spraying

Sc1nc(S)nc(S)n1 [TMT, 1,3,5-Triazinane-2,4,6-Trithione]
indications of new growth ([1]; 0.0375% w/v aqueous solution, 20 L per tree sprayed to soil beneath two trees, within one week of spraying): marked new growth
feeder roots examined ([1]; 0.0375% w/v, soil spray, about seven and a half months after spraying): healthy feeder roots and earthworms were found
growth in size more than the surrounding trees ([1]; 0.0375% w/v, soil spray, within four months): 20-25%
appearance of treated trees versus surrounding trees ([1]; 0.0375% w/v, soil spray, within seven weeks of spraying): significantly different to the surrounding trees
shoot and root formation on treated grass sample (Rhodes grass): shoots and roots formed thereon
new shoots and leaf growth [2]: new shoots from branch axils and new leaf growth appeared
functionality to stimulate growth [3]: increased synergistically
development of spores that break out of sporangias (Phytophthora; 15% aqueous solution diluted at 1:500): do not develop
effect on Phytophthora (Phytophthora; 15% aqueous solution diluted at 1:500 (10 ml/5 L), avocado soil with Phytophthora): kills and stops lifecycle of Phytophthora
effect on Phellinus in samples (Phellinus): appeared to have been killed
effect on Pithium in samples (Pithium): appeared to have been killed
effect on fungal pathogen [4]: killed
growth response (mango (Mangifera indica); 0.03% w/v, foliar and stem spray, one to three sprays, response in order of the number of sprays): extraordinary
fruit harvested, greater in mass for each additional spray (mango (Mangifera indica); 0.03% w/v, foliar and stem spray, per additional spray): 10%
leaves in number and size, flower spikes and fruit set (mango (Mangifera indica); 0.03% w/v, one to three sprays, relative to order of number of sprays): followed suit
fruit sweetness (mango (Mangifera indica); observed but not measured): sweeter with increased spraying
brix (sugar content measurement) higher than the control trees [5, 15]: approximately 10%
fruit sweetness [5, 15]: noticeably sweeter
disease and insect predators versus surrounding trees ([5]; spraying as in Example 5): much less disease and fewer insect predators
leaves of treated trees versus surrounding trees ([5]; spraying as in Example 5): bigger brighter green leaves
frost damage ([5]; unseasonal frost, nearby unsprayed trees were subject to frost damage): not affected by an unseasonal frost
effect on fungal pathogen [6]: killed
success on killing off the fungus on affected plants (Fusarium oxysporum): 100%
flowering ([7]; single foliar spray 28 Jun. 2019, within two weeks, normal flowering end of August): coming into flower
flower maturation and fruit set ([7]; by 3 Aug. 2019, some thirty-six days from spraying): the initiated flowers had matured, and the setting of fruit had commenced
flowering ([7]; by 18 July, some three weeks after spraying): continue showing flowering
fruit growth ([7]; by 28 Sep. 2019, some ninety-six days from spraying): growing apace
new flowering [7, 16]: abundance of new flowering
signs of stress [7, 16]: not showing any signs of stress
flowering (Macadamia tree; 0.03% w/v foliar spray 28 Jun. 2019, after about two weeks, normally flowers in late August): came into flower
flowering (Macadamia tree; 0.03% w/v, after three weeks): continued to produce flowers
flower maturation and fruit (nut) set (Macadamia tree; 0.03% w/v, by 3rd August, some thirty-six days after spraying): the flowers have matured and the setting of fruit(nut) has commenced
fruit growth (Macadamia tree; 0.03% w/v, by 28 Sep. 2019, some ninety-six days from spraying): growing apace
new growth out of season [8]: gone into new growth
dry matter, mass relative to the control ([9]; 0.03% w/v spray): 200% +/−4
effect on mite infection ([9]; 0.03% w/v spray): overturned the mite infection
treatment of grass die back from Phellinus and Pithium ([9]; 0.03% w/v spray, range of grass species, cause uncertain due to mealy bug): successful
time until dead patches were resolved completely ([9]; spray 50 L/50 m^2 on grazing land, house front lawn, golf course couch greens, except the football field (chlorinated town water)): 10 to 14 days
growth of trees showing poor growth [10]: marked improvement with growth
response of trees close to death [11]: slow but consistent response, with epicormic buds appearing on the tree trunks, under the bark and new leaves appearing on apparently dead branches
growth of crop plants [12]: improvement of growth
kill on contact (Phellinus spp.): kills
kill on contact (Phytothphora cinnamomi): kills
kill on contact (Pithium spp.): kills
toxicity to other soil microbes and biota [13]: not to be toxic
effect on other small organisms, birds and animals [14]: benign
LD-50 (rat): 2 × the body mass of the rat
